Values quoted from earlier work in US8236927B2, “Stabilizer molecule-depleted albumin solution” (Albutec GmbH, priority 2005, dated 2012).

Target: T1, binding site II (diazepam binding site) of the albumin (Homo sapiens, UniProt P02768)
T1 construct: commercial albumin, stabilized with 5.2 mmole of octanoate and 5.2 mmol of N-acetyl tryptophanate per mmol albumin; purchased
Details: N-acetyl tryptophan added stepwise up to a molar ratio of 1:1; reduced from 100%

T1 sequence (P02768 25-609): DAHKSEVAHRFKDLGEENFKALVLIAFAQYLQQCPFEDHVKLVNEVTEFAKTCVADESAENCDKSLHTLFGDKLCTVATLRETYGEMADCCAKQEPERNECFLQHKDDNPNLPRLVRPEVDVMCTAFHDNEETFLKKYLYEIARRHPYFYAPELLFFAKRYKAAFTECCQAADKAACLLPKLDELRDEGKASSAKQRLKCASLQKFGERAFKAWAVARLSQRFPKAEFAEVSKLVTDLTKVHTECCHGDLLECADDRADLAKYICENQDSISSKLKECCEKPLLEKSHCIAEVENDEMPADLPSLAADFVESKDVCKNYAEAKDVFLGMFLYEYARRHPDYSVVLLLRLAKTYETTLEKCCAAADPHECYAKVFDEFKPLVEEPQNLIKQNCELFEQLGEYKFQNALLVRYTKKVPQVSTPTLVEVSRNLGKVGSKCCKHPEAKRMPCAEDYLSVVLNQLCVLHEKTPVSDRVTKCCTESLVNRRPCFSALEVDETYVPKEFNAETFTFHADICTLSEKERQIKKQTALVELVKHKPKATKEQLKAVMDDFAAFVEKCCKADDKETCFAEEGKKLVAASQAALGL

binding capacity for dansylsarcosin of ligand-free albumin: about 60%
Structure (SMILES): CC(=O)N[C@@H](Cc1c[nH]c2ccccc12)C(=O)O [N-acetyl tryptophan]
